Measured values published in patent US9371353B2, “Oligonucleotide with protected base” (Ajinomoto Co., Inc., priority 2012, dated 2016).

Assay: Solubility test of nucleoside with protected 3′-hydroxyl group
Format: physicochemical
Method: The solubility (=solute/(solvent+solute)×100) (mass %) at 20° C., shown in the following Table 2, of the compound representing the present invention, thymidine wherein the 5′-hydroxyl group is protected by dimethoxytrityl group, and the 3′-hydroxyl group is protected by the branched chain-containing aromatic protecting group (Example 2), and thymidine wherein the 5′-hydroxyl group is protected by dimethoxytrityl group, and the 3′-hydroxyl group is protected by the corresponding group containing the straight chain structure (Comparative Example 2) as a comparison target thereof was measured.
[Solubility Measurement Method]
• 1) A solute (100 parts by mass) was added to a solvent (100 parts by mass) to saturation at 20° C. • 2) When the solute remained by visual observation, the supernatant was quantitatively analyzed under the following HPLC conditions, and the concentration was determined and taken as the solubility (=solute/(solvent+solute)×100)(mass %). • 3) When the solute was absent by visual observation, the solubility was >50 mass %. • [HPLC Analysis Conditions] • use instrument: Hitachi high performance liquid chromatography LaChrom Elite L-2000 series • column: YMC-PACK 5 μm 150×4.6 mm • column temperature: 40° C. • eluent: THF/CH3CN/H2O • flow rate: 1.0 ml/min

[1] = heptane/toluene/acetonitrile = 1/1/1, 20° C.

solubility (=solute/(solvent+solute)×100) (heptane, 20° C.) | solubility (=solute/(solvent+solute)×100) (heptane/toluene = 1/1, 20° C.) | solubility (=solute/(solvent+solute)×100) [1] | Compound
0% by mass | 22.3% by mass | 13.7% by mass | CCCCCCCCCCCCCCCCCCOc1cc(CNC(=O)CCC(=O)OC2CC(n3cc(C)c(=O)[nH]c3=O)OC2COC(c2ccccc2)(c2ccc(OC)cc2)c2ccc(OC)cc2)cc(OCCCCCCCCCCCCCCCCCC)c1OCCCCCCCCCCCCCCCCCC (stereo not drawn) [Comparative Example 2, 5′-O-(4,4′-dimethoxytrityl)-2′-deoxythymidin-3′-yl-N-(3,4,5-tris(octadecyloxy)benzyl)succinamate]
>50% by mass | >50% by mass | >50% by mass | COc1ccc(C(OCC2OC(n3cc(C)c(=O)[nH]c3=O)C[C@H]2OC(=O)CCC(=O)NCc2cc(OCCC(C)CCCC(C)CCCC(C)CCCC(C)C)c(OCCC(C)CCCC(C)CCCC(C)CCCC(C)C)c(OCCC(C)CCCC(C)CCCC(C)CCCC(C)C)c2)(c2ccccc2)c2ccc(OC)cc2)cc1 (stereo partly drawn) [Example 2, 5′-O-(4,4′-dimethoxytrityl)-2′-deoxythymidin-3′-yl-N-[3,4,5-tris(3,7,11,15-tetramethyl-1-hexadecanyloxy)benzyl]succinamate]
